Data as given in ChEMBL document CHEMBL1201862, “PubChem BioAssay data set” (2004).
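Cells were grown in 96-well plates and exposed to each compound for 48 hours at five concentrations; endpoints were interpolated linearly between bracketing concentrations, or set to the highest concentration if not reached. GI50: concentration for 50% inhibition of growth.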 Active and inactive are the calls of the source. Cut-off read from the data, not from the text of the source: active = GI50 up to about 1.1 µM and inactive = higher.

Assays:
Assay in all cases: DTP human tumour cell line panel, 48 h
[1] = system: OVCAR-3
[2] = system: RPMI-8226
[3] = system: COLO 205
[4] = system: A498
[5] = system: OVCAR-8
[6] = system: LOX IMVI
[7] = system: SF-539
[8] = system: CCRF-CEM
[9] = system: UO-31
[10] = system: DMS-114
[11] = system: DMS-273
[12] = system: SN12C
[13] = system: SNB-19
[14] = system: SF-268
[15] = system: UACC-257
[16] = system: NCI-H522
[17] = system: 786-0
[18] = system: K562
[19] = system: SK-MEL-5
[20] = system: HCT-15
[21] = system: U-251
[22] = system: OVCAR-4
[23] = system: CAKI-1
[24] = system: HOP-62
[25] = system: MOLT-4
[26] = system: SW-620
[27] = system: HOP-92
[28] = system: TK-10
[29] = system: HT-29
[30] = system: IGROV-1
[31] = system: RXF 393
[32] = system: A549
[33] = system: M19-MEL
[34] = system: SNB-78
[35] = system: SK-MEL-2
[36] = system: KM-20L2
[37] = system: KM12
[38] = system: SK-OV-3
[39] = system: XF498
[40] = system: UACC-62
[41] = system: DLD-1
[42] = system: NCI-H460
[43] = system: HL-60
[44] = system: LXFL 529
[45] = system: NCI-H226
[46] = system: EKVX
[47] = system: HCC 2998
[48] = system: M14
[49] = system: HOP-18
[50] = system: NCI-H23
[51] = system: SNB-75
[52] = system: SF-295
[53] = system: HCT-116
[54] = system: ACHN
[55] = system: SK-MEL-28
[56] = system: OVCAR-5
[57] = system: Malme-3M
[58] = system: RXF 631

For Cc1ccc(S(=O)(=O)c2ccccn2)cc1, the GI50 [1] was > 100 µM (inactive), the GI50 [2] was > 100 µM (inactive) and the GI50 [3] was > 100 µM (inactive). For the same molecule, the GI50 [4] was > 100 µM (inactive), the GI50 [5] was > 100 µM (inactive) and the GI50 [6] was > 100 µM (inactive). The GI50 [7] was > 100 µM (inactive), the GI50 [8] was > 100 µM (inactive) and the GI50 [9] was > 100 µM (inactive). For the same molecule, the GI50 [10] was > 100 µM (inactive), the GI50 [11] was > 100 µM (inactive) and the GI50 [12] was > 100 µM (inactive). The GI50 [13] was > 100 µM (inactive), the GI50 [14] was > 100 µM (inactive) and the GI50 [15] was > 100 µM (inactive). For the same molecule, the GI50 [16] was > 100 µM (inactive), the GI50 [17] was > 100 µM (inactive) and the GI50 [18] was > 100 µM (inactive). For the same molecule, the GI50 [19] was > 100 µM (inactive), the GI50 [20] was > 100 µM and the GI50 [21] was > 100 µM (inactive). For the same molecule, the GI50 [22] was > 100 µM (inactive), the GI50 [23] was > 100 µM (inactive) and the GI50 [24] was > 100 µM (inactive). The GI50 [25] was > 100 µM (inactive), the GI50 [26] was > 100 µM (inactive) and the GI50 [27] was > 100 µM (inactive). The GI50 [28] was > 100 µM (inactive), the GI50 [29] was > 100 µM (inactive) and the GI50 [30] was > 100 µM (inactive). For the same molecule, the GI50 [31] was > 100 µM (inactive), the GI50 [32] was > 100 µM (inactive) and the GI50 [33] was > 100 µM (inactive). The GI50 [34] was > 100 µM (inactive), the GI50 [35] was > 100 µM (inactive) and the GI50 [36] was > 100 µM (inactive). For the same molecule, the GI50 [37] was > 100 µM (inactive), the GI50 [38] was > 100 µM (inactive) and the GI50 [39] was > 100 µM (inactive). The GI50 [40] was > 100 µM (inactive), the GI50 [41] was > 100 µM (inactive) and the GI50 [42] was > 100 µM (inactive). The GI50 [43] was > 100 µM (inactive), the GI50 [44] was > 100 µM (inactive) and the GI50 [45] was > 100 µM (inactive). For the same molecule, the GI50 [46] was > 100 µM (inactive), the GI50 [47] was > 100 µM (inactive) and the GI50 [48] was > 100 µM (inactive). The GI50 [49] was > 100 µM (inactive), the GI50 [50] was > 100 µM (inactive) and the GI50 [51] was 90.8 µM (inactive). The GI50 [52] was > 100 µM (inactive), the GI50 [53] was > 100 µM (inactive) and the GI50 [54] was > 100 µM (inactive). The GI50 [55] was > 100 µM (inactive), the GI50 [56] was 46.5 µM (inactive) and the GI50 [57] was > 100 µM (inactive). For the same molecule, the GI50 [58] was > 100 µM (inactive).

CC1(C)C2C=CC1C(=O)CC2 (centres undefined) was tested, and the GI50 [1] was > 100 µM (inactive), the GI50 [2] was > 100 µM (inactive) and the GI50 [4] was > 100 µM (inactive). The GI50 [5] was > 100 µM (inactive), the GI50 [6] was > 100 µM (inactive) and the GI50 [7] was > 100 µM (inactive). The GI50 [8] was > 100 µM (inactive), the GI50 [9] was > 100 µM (inactive) and the GI50 [11] was > 100 µM (inactive). For the same molecule, the GI50 [13] was 15.9 µM (inactive), the GI50 [14] was > 100 µM (inactive) and the GI50 [15] was 49.9 µM (inactive). The GI50 [16] was > 100 µM (inactive), the GI50 [17] was > 100 µM (inactive) and the GI50 [18] was > 100 µM (inactive). The GI50 [19] was > 100 µM (inactive), the GI50 [20] was > 100 µM and the GI50 [21] was > 100 µM (inactive). The GI50 [22] was > 100 µM (inactive), the GI50 [23] was > 100 µM (inactive) and the GI50 [24] was > 100 µM (inactive). The GI50 [25] was > 100 µM (inactive), the GI50 [26] was > 100 µM (inactive) and the GI50 [27] was > 100 µM (inactive). For the same molecule, the GI50 [28] was > 100 µM (inactive), the GI50 [29] was > 100 µM (inactive) and the GI50 [31] was > 100 µM (inactive). The GI50 [32] was > 100 µM (inactive), the GI50 [34] was > 100 µM (inactive) and the GI50 [35] was > 100 µM (inactive). For the same molecule, the GI50 [36] was > 100 µM (inactive), the GI50 [37] was > 100 µM (inactive) and the GI50 [39] was > 100 µM (inactive). For the same molecule, the GI50 [41] was > 100 µM (inactive), the GI50 [42] was > 100 µM (inactive) and the GI50 [43] was > 100 µM (inactive). For the same molecule, the GI50 [44] was > 100 µM (inactive), the GI50 [45] was > 100 µM (inactive) and the GI50 [46] was > 100 µM (inactive). For the same molecule, the GI50 [47] was > 100 µM (inactive), the GI50 [48] was > 100 µM (inactive) and the GI50 [49] was > 100 µM (inactive). For the same molecule, the GI50 [50] was > 100 µM (inactive), the GI50 [51] was > 100 µM (inactive) and the GI50 [52] was > 100 µM (inactive). The GI50 [53] was > 100 µM (inactive), the GI50 [54] was > 100 µM (inactive) and the GI50 [55] was > 100 µM (inactive). The GI50 [56] was > 100 µM (inactive), the GI50 [57] was > 100 µM (inactive) and the GI50 [58] was > 100 µM (inactive).
